± gives the standard deviation of the averaged measurements.
Experiments:
Assay in all cases: level (log10 ratio to DMSO vehicle control); higher = higher biomarker level / cell amount than vehicle control
[1] = compound: O=S(=O)(O)C(F)(F)C(F)(F)C(F)(F)C(F)(F)C(F)(F)C(F)(F)C(F)(F)F [Perfluoroheptanesulfonic acid] (in DMSO)
Method: (§1)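 BioMAP Diversity Plus panel of 12 human primary cell co-culture systems (3C, 4H, LPS, SAg, BT, BF4T, BE3C, CASM3C, HDF3CGF, KF3CT, MyoF, Mphg). Compounds were added 1 h before stimulation and left for 24 h (MyoF 48 h; BT 72 h for soluble read-outs or 6 d for IgG). Biomarkers were read by ELISA, cytotoxicity by SRB, PBMC viability and proliferation by Alamar Blue. Each well value was divided by the mean of 8 DMSO control wells on the same plate and log10 transformed; duplicate blinded samples were tested at 4 concentrations.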

[2] = compound: OCCC(F)(F)C(F)(F)C(F)(F)C(F)(F)F [4:2 Fluorotelomer alcohol] (in DMSO)
Method: as §1

[3] = compound: O=C(O)C(F)(F)OC(F)(F)C(F)(F)OC(F)(F)C(F)(F)OC(F)(F)C(F)(F)C(F)(F)C(F)(F)F [Perfluoro-3,6,9-trioxatridecanoic acid] (in DMSO); details: 6700 nM
Method: as §1

[4] = compound: O=S(=O)(O)C(F)(F)C(F)(F)OC(F)(F)C(F)(F)F [Perfluoro(2-ethoxyethane)sulfonic acid] (in DMSO)
Method: as §1

[5] = compound: CO[Si](C)(CCC(F)(F)C(F)(F)C(F)(F)C(F)(F)C(F)(F)C(F)(F)F)OC [Dimethoxymethyl((perfluorohexyl)ethyl)silane] (in DMSO)
Method: as §1

[6] = compound: O=C(O)C(F)(OC(F)(F)C(F)(F)C(F)(F)F)C(F)(F)F [Ammonium perfluoro-2-methyl-3-oxahexanoate] (in Water)
Method: as §1

[7] = compound: CCOC(=O)CC(=O)C(F)(F)C(F)(F)F [Ethyl pentafluoropropionyl acetate] (in DMSO)
Method: as §1

Test System	level (log10) ([1]; 1500 nM)	level (log10) ([1]; 4400 nM)	level (log10) ([1]; 13000 nM)	level (log10) ([1]; 40000 nM)	level (log10) ([2]; 6700 nM)	level (log10) ([2]; 20000 nM)	level (log10) ([2]; 60000 nM)	level (log10) [3]	level (log10) ([4]; 6700 nM)	level (log10) ([4]; 20000 nM)	level (log10) ([4]; 60000 nM)	level (log10) ([5]; 6700 nM)	level (log10) ([5]; 20000 nM)	level (log10) ([6]; 6700 nM)	level (log10) ([6]; 20000 nM)	level (log10) ([6]; 60000 nM)	level (log10) ([7]; 6700 nM)	level (log10) ([7]; 20000 nM)	level (log10) ([7]; 60000 nM)
LPS:sTNF-alpha	0.024 ± 0.011	-0.0245 ± 0.012	-0.0225 ± 0.013	-0.0295 ± 0.005	-0.008 ± 0.02	-0.01 ± 0.0071	0.0015 ± 0.0092	-0.019 ± 0.024	0.011 ± 0.0057	-0.0005 ± 0.0035	-0.0005 ± 0.0092	-0.0025 ± 0.0078	-0.0045 ± 0.0078	-0.068 ± 0.021	-0.0375 ± 0.043	-0.0225 ± 0.033	0.0125 ± 0.015	0.0095 ± 0.0064	0.0085 ± 0.012
BT:B cell Proliferation	0.031 ± 0.041	0.0315 ± 0.057	-0.0185 ± 0.021	0.0115 ± 0.053	0.0125 ± 0.0035	0.0155 ± 0.033	0.019 ± 0.0042	0.028 ± 0.02	0.011 ± 0.011	0.0575 ± 0.036	0.034 ± 0.0014	0.0085 ± 0.011	0.023 ± 0.0042	-0.239 ± 0.0085	-0.256 ± 0.011	-0.248 ± 0.0035	0.012 ± 0.017	-0.006 ± 0.011	0.0035 ± 0.022
4H:SRB	-0.0185 ± 0.012	-0.007 ± 0.014	-0.0055 ± 0.013	-0.0065 ± 0.018	-0.0005 ± 0.012	-0.004 ± 0.0014	0.0135 ± 0.015	0.0035 ± 0.0092	-0.015 ± 0.0057	-0.0035 ± 0.0021	-0.016 ± 0.023	-0.015 ± 0.013	0.0065 ± 0.00071	-0.0075 ± 0.012	-0.018 ± 0.014	-0.0115 ± 0.005	0.0055 ± 0.005	0.0045 ± 0.012	0.0015 ± 0.028
BF4T:CD54/ICAM-1	0.009 ± 0.011	0.004 ± 0.017	-0.0155 ± 0.0035	0.0125 ± 0.016	-0.0055 ± 0.025	0.0135 ± 0.03	-0.003 ± 0.034	-0.0705 ± 0.019	-0.003 ± 0.0028	-0.0125 ± 0.0064	-0.008 ± 0.017	-0.006 ± 0.0071	-0.008 ± 0.0099	-0.0155 ± 0.012	-0.0265 ± 0.016	-0.0075 ± 0.0021	-0.0075 ± 0.0064	-0.003 ± 0.014	-0.02 ± 0.0071
4H:CD87/uPAR	-0.0135 ± 0.032	0.0325 ± 0.00071	0.0455 ± 0.005	0.0355 ± 0.029	-0.026 ± 0.011	-0.0105 ± 0.023	-0.005 ± 0.0028	0.0145 ± 0.03	0.017 ± 0.062	0.0005 ± 0.049	0.0065 ± 0.059	0.004 ± 0.028	0.0195 ± 0.013	-0.033 ± 0.027	-0.024 ± 0.033	-0.06 ± 0.0014	-0.0055 ± 0.0064	-0.0585 ± 0.07	-0.0565 ± 0.13
BF4T:CCL26/Eotaxin-3	0.053 ± 0.05	0.01	-0.0715 ± 0.011	-0.069 ± 0.058	-0.037 ± 0.068	0.016 ± 0.073	0.001 ± 0.082	-0.395 ± 0.018	0.019 ± 0.0014	-0.0075 ± 0.00071	0.039 ± 0.038	0.0285 ± 0.011	-0.0075 ± 0.0092	-0.128 ± 0.03	-0.0995 ± 0.06	-0.137 ± 0.03	0.014 ± 0.0014	0.003 ± 0.014	0.0015 ± 0.03
BF4T:MMP-1	0.0055 ± 0.0078	-0.0055 ± 0.005	-0.019 ± 0.0014	0.0225 ± 0.0092	-0.008 ± 0.031	-0.0005 ± 0.036	0.0085 ± 0.015	-0.0535 ± 0.012	-0.002 ± 0.013	-0.0005 ± 0.00071	0.0125 ± 0.0064	-0.01 ± 0.054	0.0085 ± 0.023	0.031 ± 0.02	0.0105 ± 0.023	0.029 ± 0.011	-0.0045 ± 0.03	-0.0005 ± 0.018	0.0155 ± 0.0035
